# Laboratory results as given in the Kinase Knowledgebase extract (Sharma et al. 2016).
# pIC50: −log10 of the molar value.
# Target: PIK3CD (Human) (UniProt O00329)
# Test: Assessment of PIK3CD Kinase Activity
# Sequence of PIK3CD (Human) (O00329 whole entry, looked up): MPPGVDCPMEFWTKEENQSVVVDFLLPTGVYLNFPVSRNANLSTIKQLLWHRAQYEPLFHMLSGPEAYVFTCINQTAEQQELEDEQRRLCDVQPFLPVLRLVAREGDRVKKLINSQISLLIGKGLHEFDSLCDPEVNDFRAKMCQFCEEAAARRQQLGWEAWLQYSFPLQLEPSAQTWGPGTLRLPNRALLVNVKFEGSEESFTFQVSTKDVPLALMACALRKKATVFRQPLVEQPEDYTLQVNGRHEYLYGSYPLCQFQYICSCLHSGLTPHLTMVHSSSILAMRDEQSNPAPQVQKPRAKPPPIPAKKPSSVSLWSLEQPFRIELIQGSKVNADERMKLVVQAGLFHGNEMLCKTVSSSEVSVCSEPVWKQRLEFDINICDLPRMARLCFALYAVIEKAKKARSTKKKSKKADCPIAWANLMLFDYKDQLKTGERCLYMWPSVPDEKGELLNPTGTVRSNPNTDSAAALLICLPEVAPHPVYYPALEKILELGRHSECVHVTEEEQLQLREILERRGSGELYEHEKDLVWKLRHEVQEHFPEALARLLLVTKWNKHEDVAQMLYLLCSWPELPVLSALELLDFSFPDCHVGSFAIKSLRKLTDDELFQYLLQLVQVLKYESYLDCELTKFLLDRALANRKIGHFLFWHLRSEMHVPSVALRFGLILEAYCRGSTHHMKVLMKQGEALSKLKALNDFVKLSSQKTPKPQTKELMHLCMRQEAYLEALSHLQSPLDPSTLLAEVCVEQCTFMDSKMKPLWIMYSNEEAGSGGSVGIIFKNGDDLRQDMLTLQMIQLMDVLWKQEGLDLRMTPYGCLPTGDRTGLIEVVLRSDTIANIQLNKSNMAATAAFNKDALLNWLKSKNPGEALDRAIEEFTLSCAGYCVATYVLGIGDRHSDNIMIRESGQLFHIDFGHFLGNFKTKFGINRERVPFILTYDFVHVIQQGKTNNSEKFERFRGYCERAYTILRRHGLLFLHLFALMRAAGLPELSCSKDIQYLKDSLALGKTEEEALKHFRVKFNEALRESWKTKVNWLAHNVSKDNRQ
row,Structure (SMILES),pIC50
1,OCCC1CCN(Cc2cc3nc(-c4cccc5[nH]ncc45)nc(N4CCOCC4)c3s2)CC1,≥ 7.00
2,CN(C)S(=O)(=O)N1CCN(Cc2cc3nc(-c4cccc5[nH]ncc45)nc(N4CCOCC4)c3s2)CC1,≥ 7.00
3,CS(=O)(=O)C1CCN(Cc2cc3nc(-c4cccc5[nH]ncc45)nc(N4CCOCC4)c3s2)CC1,≥ 7.00
4,COCCN(C)C(=O)N1CCN(Cc2cc3nc(-c4cccc5[nH]ncc45)nc(N4CCOCC4)c3s2)CC1,≥ 7.00
5,c1cc(-c2nc(N3CCOCC3)c3sc(CN4CCC(CN5CCOCC5)CC4)cc3n2)c2cn[nH]c2c1,≥ 7.00
6,CN(C)CCCS(=O)(=O)N1CCN(Cc2cc3nc(-c4cccc5[nH]ncc45)nc(N4CCOCC4)c3s2)CC1,≥ 7.00
7,COCCN(CC1CC1)C1CCN(Cc2cc3nc(-c4cccc5[nH]ncc45)nc(N4CCOCC4)c3s2)CC1,≥ 7.00
8,Cn1ccnc1CN1CCN(Cc2cc3nc(-c4cccc5[nH]ncc45)nc(N4CCOCC4)c3s2)CC1,≥ 7.00
9,COCCN(Cc1nccs1)C1CCN(Cc2cc3nc(-c4cccc5[nH]ncc45)nc(N4CCOCC4)c3s2)CC1,≥ 7.00
10,COCCN1CCN(Cc2cc3nc(-c4cccc5[nH]ncc45)nc(N4CCOCC4)c3s2)CC1,≥ 7.00
11,CN1CCN(Cc2cc3nc(-c4cc(F)cc5[nH]ncc45)nc(N4CCOCC4)c3s2)CC1,≥ 7.00
12,CN(C)C(=O)N1CCN(Cc2cc3nc(-c4cccc5[nH]ccc45)nc(N4CCOCC4)c3s2)CC1,≥ 7.00
13,Cc1csc(CN2CCN(Cc3cc4nc(-c5cccc6[nH]ncc56)nc(N5CCOCC5)c4s3)CC2)n1,≥ 7.00
14,c1ccc(N2CCN(Cc3cc4nc(-c5cccc6[nH]ncc56)nc(N5CCOCC5)c4s3)CC2)nc1,≥ 7.00
15,FC(F)(F)CN1CCN(Cc2cc3nc(-c4cccc5[nH]ncc45)nc(N4CCOCC4)c3s2)CC1,≥ 7.00
16,c1cc(-c2nc(N3CCOCC3)c3sc(CN4CCN(Cc5ccncc5)CC4)cc3n2)c2cn[nH]c2c1,≥ 7.00
17,c1cc(-c2nc(N3CCOCC3)c3sc(CN4CCN(CC5CC5)CC4)cc3n2)c2cn[nH]c2c1,≥ 7.00
18,c1ccc(CC2CCN(Cc3cc4nc(-c5cccc6[nH]ncc56)nc(N5CCOCC5)c4s3)CC2)nc1,≥ 7.00
19,C[C@@H]1CN(Cc2cc3nc(-c4cccc5[nH]ncc45)nc(N4CCOCC4)c3s2)C[C@H](C)N1Cc1nccs1,≥ 7.00
20,COCCN(C)C1CCCN(Cc2cc3nc(-c4cccc5[nH]ncc45)nc(N4CCOCC4)c3s2)C1 (stereo unspecified),≥ 7.00
21,CC1CCCN(Cc2cc3nc(-c4cccc5[nH]ncc45)nc(N4CCOCC4)c3s2)C1 (stereo unspecified),≥ 7.00
22,CNC(=O)C1CCCN(Cc2cc3nc(-c4cccc5[nH]ncc45)nc(N4CCOCC4)c3s2)C1 (stereo unspecified),≥ 7.00
23,COCCCN(C)C1CCN(Cc2cc3nc(-c4cccc5[nH]ncc45)nc(N4CCOCC4)c3s2)CC1,≥ 7.00
24,CN(C)C1CCN(Cc2cc3nc(-c4cccc5[nH]ccc45)nc(N4CCOCC4)c3s2)CC1,≥ 7.00

row,Structure (SMILES),pIC50
1,COCC1(N2CCN(Cc3cc4nc(-c5cccc6[nH]ncc56)nc(N5CCOCC5)c4s3)CC2)CC1,≥ 7.00
2,c1cc(-c2nc(N3CCOCC3)c3sc(CN4CCC(N5CCOCC5)CC4)cc3n2)c2cc[nH]c2c1,≥ 7.00
3,c1cc(-c2nc(N3CCOCC3)c3sc(CN4CCC(N5CCCCC5)CC4)cc3n2)c2cn[nH]c2c1,≥ 7.00
4,COCCN(C)CC1CCN(Cc2cc3nc(-c4cccc5[nH]ncc45)nc(N4CCOCC4)c3s2)CC1,≥ 7.00
5,OC(COc1ccccc1)CN1CCN(Cc2cc3nc(-c4cccc5[nH]ncc45)nc(N4CCOCC4)c3s2)CC1 (stereo unspecified),≥ 7.00
6,CS(=O)(=O)N1CCN(Cc2cc3nc(-c4cccc5[nH]ccc45)nc(N4CCOCC4)c3s2)CC1,≥ 7.00
7,Cc1cc(CN2CCN(Cc3cc4nc(-c5cccc6[nH]ncc56)nc(N5CCOCC5)c4s3)CC2)no1,≥ 7.00
8,c1cc(-c2nc(N3CCOCC3)c3sc(CN4CCOCC4)cc3n2)c2cn[nH]c2c1,≥ 7.00
9,OCC1CCN(Cc2cc3nc(-c4cccc5[nH]ncc45)nc(N4CCOCC4)c3s2)CC1,≥ 7.00
10,CN1CCN(Cc2cc3nc(-c4cccc5[nH]ncc45)nc(N4CCOCC4)c3s2)CC1,≥ 7.00
11,CCC(CC)(COC)N1CCN(Cc2cc3nc(-c4cccc5[nH]ncc45)nc(N4CCOCC4)c3s2)CC1,≥ 7.00
12,CNC(=O)[C@H]1CCCN(Cc2cc3nc(-c4cccc5[nH]ncc45)nc(N4CCOCC4)c3s2)C1,≥ 7.00
13,Cc1ccc(CN2CCN(Cc3cc4nc(-c5cccc6[nH]ncc56)nc(N5CCOCC5)c4s3)CC2)o1,≥ 7.00
14,COCCN(C)C1CCN(Cc2cc3nc(-c4cccc5[nH]ncc45)nc(N4CCOCC4)c3s2)CC1,≥ 7.00
15,c1cc(-c2nc(N3CCOCC3)c3sc(CN4CCC(Cn5ccnc5)CC4)cc3n2)c2cn[nH]c2c1,≥ 7.00
16,c1ccc(CN2CCN(Cc3cc4nc(-c5cccc6[nH]ncc56)nc(N5CCOCC5)c4s3)CC2)nc1,≥ 7.00
17,COCCN(CC(F)(F)F)C1CCN(Cc2cc3nc(-c4cccc5[nH]ncc45)nc(N4CCOCC4)c3s2)CC1,≥ 7.00
18,CN(C)CC1CCN(Cc2cc3nc(-c4cccc5[nH]ncc45)nc(N4CCOCC4)c3s2)CC1,≥ 7.00
19,c1cc(-c2nc(N3CCOCC3)c3sc(CN4CCN(c5nccs5)CC4)cc3n2)c2cn[nH]c2c1,≥ 7.00
20,c1cncc(CN2CCN(Cc3cc4nc(-c5cccc6[nH]ncc56)nc(N5CCOCC5)c4s3)CC2)c1,≥ 7.00
21,COCC(C)(C)N1CCN(Cc2cc3nc(-c4cccc5[nH]ncc45)nc(N4CCOCC4)c3s2)CC1,≥ 7.00
22,COCC1CN(Cc2cc3nc(-c4cccc5[nH]ncc45)nc(N4CCOCC4)c3s2)CCN1S(C)(=O)=O (stereo unspecified),≥ 7.00
23,CN(C)C(=O)CN1CCN(Cc2cc3nc(-c4cccc5[nH]ncc45)nc(N4CCOCC4)c3s2)CC1,≥ 7.00

# Next, values leading:
row,pIC50,Structure (SMILES)
1,≥ 7.00,OCCN1CCN(Cc2cc3nc(-c4cccc5[nH]ccc45)nc(N4CCOCC4)c3s2)CC1
2,≥ 7.00,C[C@@H]1CN(C)C[C@H](C)N1Cc1cc2nc(-c3cccc4[nH]ncc34)nc(N3CCOCC3)c2s1
3,≥ 7.00,COCCN1[C@H](C)CN(Cc2cc3nc(-c4cccc5[nH]ncc45)nc(N4CCOCC4)c3s2)C[C@@H]1C
4,≥ 7.00,COCC1CCN(Cc2cc3nc(-c4cccc5[nH]ncc45)nc(N4CCOCC4)c3s2)CC1
5,≥ 7.00,OCC1CCCN(Cc2cc3nc(-c4cccc5[nH]ncc45)nc(N4CCOCC4)c3s2)C1 (stereo unspecified)
6,≥ 7.00,Cc1cccc(CN2CCN(Cc3cc4nc(-c5cccc6[nH]ncc56)nc(N5CCOCC5)c4s3)CC2)n1
7,≥ 7.00,CN(C)C(=O)N1CCN(Cc2cc3nc(-c4cccc5[nH]ncc45)nc(N4CCOCC4)c3s2)CC1
8,≥ 7.00,c1cc(-c2nc(N3CCOCC3)c3sc(CN4CCC(N5CCOCC5)CC4)cc3n2)c2cn[nH]c2c1
9,≥ 7.00,[O-][n+]1cccc(CN2CCN(Cc3cc4nc(-c5cccc6[nH]ncc56)nc(N5CCOCC5)c4s3)CC2)c1
10,≥ 7.00,c1ccc(OC2CCN(Cc3cc4nc(-c5cccc6[nH]ncc56)nc(N5CCOCC5)c4s3)CC2)nc1
11,≥ 7.00,CNC(=O)C(C)(C)N1CCN(Cc2cc3nc(-c4cccc5[nH]ncc45)nc(N4CCOCC4)c3s2)CC1
12,≥ 7.00,COCCCS(=O)(=O)C1CCN(Cc2cc3nc(-c4cccc5[nH]ncc45)nc(N4CCOCC4)c3s2)CC1
13,≥ 7.00,O=C1CN(Cc2cc3nc(-c4cccc5[nH]ncc45)nc(N4CCOCC4)c3s2)CCN1CCO
14,≥ 7.00,c1cc(-c2nc(N3CCOCC3)c3sc(CN4CCN(Cc5nccs5)CC4)cc3n2)c2cn[nH]c2c1
15,≥ 7.00,c1cnc(N2CCN(Cc3cc4nc(-c5cccc6[nH]ncc56)nc(N5CCOCC5)c4s3)CC2)nc1
16,≥ 7.00,OC1(Cc2ccccn2)CCN(Cc2cc3nc(-c4cccc5[nH]ncc45)nc(N4CCOCC4)c3s2)CC1
17,≥ 7.00,CC(C)(C(N)=O)N1CCN(Cc2cc3nc(-c4cccc5[nH]ncc45)nc(N4CCOCC4)c3s2)CC1
18,≥ 7.00,CN1CCN(Cc2cc3nc(-c4cccc5nn(C)cc45)nc(N4CCOCC4)c3s2)CC1
19,≥ 7.00,c1ccc(NC2CCN(Cc3cc4nc(-c5cccc6[nH]ncc56)nc(N5CCOCC5)c4s3)CC2)nc1
20,≥ 7.00,COCCOC1CCN(Cc2cc3nc(-c4cccc5[nH]ncc45)nc(N4CCOCC4)c3s2)CC1

row,pIC50,Structure (SMILES)
1,≥ 7.00,[O-][n+]1ccccc1CN1CCN(Cc2cc3nc(-c4cccc5[nH]ncc45)nc(N4CCOCC4)c3s2)CC1
2,≥ 7.00,CN1CCN(Cc2cc3nc(-c4cccc5[nH]ccc45)nc(N4CCOCC4)c3s2)CC1
3,≥ 7.00,O=C(N1CCOCC1)N1CCN(Cc2cc3nc(-c4cccc5[nH]ncc45)nc(N4CCOCC4)c3s2)CC1
4,≥ 7.00,CC(C)(O)CN1CCN(Cc2cc3nc(-c4cccc5[nH]ncc45)nc(N4CCOCC4)c3s2)CC1
5,≥ 7.00,CN(C1CCN(Cc2cc3nc(-c4cccc5[nH]ncc45)nc(N4CCOCC4)c3s2)CC1)S(C)(=O)=O
6,≥ 7.00,COCCN(C1CCN(Cc2cc3nc(-c4cccc5[nH]ncc45)nc(N4CCOCC4)c3s2)CC1)S(C)(=O)=O
7,≥ 7.00,CC(C)(CO)N1CCN(Cc2cc3nc(-c4cccc5[nH]ncc45)nc(N4CCOCC4)c3s2)CC1
8,≥ 7.00,CN1CCN(Cc2cc3nc(-c4cccc5c4cnn5C)nc(N4CCOCC4)c3s2)CC1
9,≥ 7.00,NC(=O)C1CCN(Cc2cc3nc(-c4cccc5[nH]ncc45)nc(N4CCOCC4)c3s2)CC1
10,≥ 7.00,OCCN1CCN(Cc2cc3nc(-c4cccc5[nH]ncc45)nc(N4CCOCC4)c3s2)CC1
11,≥ 7.00,C[C@@H]1CN(Cc2cc3nc(-c4cccc5[nH]ncc45)nc(N4CCOCC4)c3s2)C[C@H](C)N1Cc1ccccn1
12,≥ 7.00,COCCC1CCN(Cc2cc3nc(-c4cccc5[nH]ncc45)nc(N4CCOCC4)c3s2)CC1
13,≥ 7.00,OC1(c2nccs2)CCN(Cc2cc3nc(-c4cccc5[nH]ncc45)nc(N4CCOCC4)c3s2)CC1
14,≥ 7.00,c1cc(-c2nc(N3CCOCC3)c3sc(CN4CCNCC4)cc3n2)c2cc[nH]c2c1
15,≥ 7.00,CC(C)(O)C1CCN(Cc2cc3nc(-c4cccc5[nH]ncc45)nc(N4CCOCC4)c3s2)CC1
16,≥ 7.00,CS(=O)(=O)N1CCN(Cc2cc3nc(-c4cccc5[nH]ncc45)nc(N4CCOCC4)c3s2)CC1CO (stereo unspecified)
17,≥ 7.00,O=S(=O)(CCCN1CCOCC1)N1CCN(Cc2cc3nc(-c4cccc5[nH]ncc45)nc(N4CCOCC4)c3s2)CC1
18,≥ 7.00,CN(CCCS(C)(=O)=O)C1CCN(Cc2cc3nc(-c4cccc5[nH]ncc45)nc(N4CCOCC4)c3s2)CC1
19,≥ 7.00,COCCN(C(C)C)C1CCN(Cc2cc3nc(-c4cccc5[nH]ncc45)nc(N4CCOCC4)c3s2)CC1
